# Results taken from patent US6333176A (Degussa Aktiengesellschaft, priority 1994, dated 2001).
# Read-outs that look alike come from different tables or passages of the source. Peptide text beside a SMILES is read from it. * marks the point of attachment. Cbz = O=C(OCc1ccccc1)*
# T1: peptide amidase from Xanthomonas maltophilia (Stenotrophomonas maltophilia, UniProt Q8RJN5)
# T1 construct: wild type, not recombinant
# T1 sequence (Q8RJN5 34-540): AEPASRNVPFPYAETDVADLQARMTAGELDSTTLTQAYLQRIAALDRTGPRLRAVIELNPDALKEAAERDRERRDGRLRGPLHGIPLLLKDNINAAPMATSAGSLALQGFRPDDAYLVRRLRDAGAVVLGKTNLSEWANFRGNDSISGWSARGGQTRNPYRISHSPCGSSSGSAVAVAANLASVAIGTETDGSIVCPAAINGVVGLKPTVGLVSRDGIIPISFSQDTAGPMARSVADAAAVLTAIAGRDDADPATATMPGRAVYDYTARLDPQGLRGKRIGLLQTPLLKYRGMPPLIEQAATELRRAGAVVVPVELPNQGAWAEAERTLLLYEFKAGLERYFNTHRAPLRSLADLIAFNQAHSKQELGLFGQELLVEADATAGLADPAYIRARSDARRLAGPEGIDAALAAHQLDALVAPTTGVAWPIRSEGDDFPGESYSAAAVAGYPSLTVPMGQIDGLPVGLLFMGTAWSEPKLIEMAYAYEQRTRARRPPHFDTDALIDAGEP
# Tests used:
# [1] = system: Xanthomonas maltophilia; experiment: Inducibility of peptide amidase from Xanthomonas maltophilia; type: cell-based; conditions: for Activity (peptide amidase in raw extract) / Spec. activity (peptide amidase in raw extract): additive in the nutrient medium (amide 0.5%), 2 days, 30° C., 120 rpm
# Procedure: 1 l Erlenmeyer flasks were provided with 200 ml of the nutrient medium used in the second part of the screening for the examinations of the inducibility of peptide amidase from Xanthomonas maltophilia. The amount of yeast extract was raised to 0.1% thereby and only one amide derivative added to 0.5% of the medium in each instance. In addition, media without the addition of amides and with 1.5% yeast extract were examined. Ac-DL-Met-NH2, leucine amide and carnitine amide were used as amides. The flasks were inoculated to 0.5% and agitated 2 days at 30° C. and 120 rpm. The obtention of the raw extracts took place as already described above.
# [2] = target: T1, peptide amidase from Xanthomonas maltophilia; experiment: Substrate spectrum of peptide amidase, enzymatic determination of the released ammonia; type: biochemical; conditions: substrate 10 mM, 18 mU peptide amidase per ml, 50 mM tris/HCl pH 7.5, 30° C., 3 hours
# Procedure: 18 mU of peptide amidase (purification state after the gel filtration) per ml test batch was used for the substrate spectrum of peptide amidase from Xanthomonas maltophilia. The concentration of the tested substrates was 10 mM in the reaction batch. Unless otherwise indicated, L-amino acid derivatives were used. The incubation took place in 50 mM tris/HCl, pH 7.5 at 30° C. for 3 hours. The reaction was stopped by heating for 5 minutes at 95° C. The determination of activity took place using enzymatic determination of the released ammonia (Bergmeyer, U. (1985): Methods of Enzymatic Analysis, p. 459, VCH Verlagsgesellschaft, Weinheim).
# [3] = target: T1, peptide amidase from Xanthomonas maltophilia; experiment: biochemical; type: biochemical; conditions: for remaining activity at 10000 µM: read-out: residual activity
# [4] = target: T1, peptide amidase from Xanthomonas maltophilia; experiment: Splitting of racemic mixtures of N-protected amino acid amides; type: biochemical; conditions: racemic substrate 10 mM, 20 U peptide amidase in 50 ml, 50 mM triethylammonium carbonate pH 7.5, 30° C.
# Procedure: The tests for the splitting [separation] of racemic mixtures took place in 50 mM triethylammonium carbonate buffer, pH 7.5. The test batches a 50 ml with 20 U peptide amidase each were incubated at 30° C. Z-D,L-Ala-NH2, Ac-D,L-Met-NH2 and Ac-D,L-neopentylglycine amide (Ac-D,L-Npg-NH2) were available as substrates. The concentration of the substrates in the reaction batch was 10 mM. Specimens were taken at different times, the reaction stopped by heating for 5 minutes at 95° C. and the enantiomeric purity examined with HPLC.
# [5] = target: T1, peptide amidase from Xanthomonas maltophilia; experiment: Influence of solvents on the peptide amidase activity; type: biochemical; conditions: pH 7.5, 90 minutes, 30° C.
# Procedure: 200 μl enzyme solution (59 μg BSAeq/ml, purification stage after the gel filtration) were compounded in each instance with 700 μl of an appropriate mixture of 50 mM tris/solvent, pH 7.5 for the examinations of the influence of solvents on the peptide amidase activity. Dimethylformamide (DMF), acetone, ethanol and propan-1-ol, which were present in the reaction batch up to 70% by volumetric amount, were tested as solvents. The reaction was started by adding substrate Z-Gly-Tyr-NH2. The incubation took place for 90 minutes at 30° C. Then, aliquots of 100 μl of the reaction batches were provided with 100 μl glacial acetic acid and the enzyme activity determined as described in 1.4. […] It is apparent that at 20% DMF, 94% residual activity is still present and even at 30%, 59% is still present. In the presence of other solvents such as […] the enzyme distinctly loses activity but is nevertheless not completely inactivated at a content of 10% (residual activity 30%).
# [6] = system: peptide amidase from flavedo of oranges; conditions: cited from earlier work
# [7] = target: T1, peptide amidase from Xanthomonas maltophilia; experiment: Enzyme kinetics of peptide amidase; type: biochemical; conditions: substrate 0.4 to 20 mM, 50 mM tris/HCl pH 7.5, 2 hours, 30° C.
# Procedure: (§1) The dependency of the reaction rate of peptide amidase from Xanthomonas maltophilia on the substrate concentration (Z-Gly-Tyr-NH2) was determined and the kinetic parameters determined from the data according to Marquardt. To this end, 50 μl enzyme solution a 27 μg BSAeq/ml were compounded with 400 μl 50 mM tris/HCl buffer, pH 7.5. The reaction was started by adding Z-Gly-Tyr-NH2 as substrate. The substrate was present in the reaction batches in a concentration range of 0.4 to 20 mM. The incubation took place for 2 hours at 30° C. The enzyme activity was then determined as described under 1.4.
# (§2) The reaction conditions were selected with a view to the pH stability of peptide amidase from Xanthomonas maltophilia.
# (§3) In order to stop the reaction 100 μl of the reaction solution was removed, compounded with 100 μl glacial acetic acid and filled with 1.4 ml HPLC mobile solvent. An aliquot of 20 μl was analyzed by HPLC. The conditions for the HPLC analysis of Z-Gly-Tyr-NH2 were as follows: […]
# [8] = substrate: NC(=O)[C@H](Cc1ccc(O)cc1)NC(=O)CNC(=O)OCc1ccccc1; experiment: Enzyme kinetics of peptide amidase; type: biochemical, Xanthomonas maltophilia; conditions: other: substrate 0.4 to 20 mM, 50 mM tris/HCl pH 7.5, 2 hours, 30° C.
# Procedure: as §1, §2, §3
# [9] = potential inhibitor 10 mM in the test, preincubation 1 h 30° C., Z-Gly-Tyr-NH2 10 mM, 2.5 h
molecule,measurement,setting,value
"CSCCC(NC(C)=O)C(N)=O (racemic) [Ac-D,L-Met-NH2, N-Ac-D,L-methionine amide]",Activity (peptide amidase in raw extract),[1],88 mU/ml
same,Spec. activity (peptide amidase in raw extract),[1],13 mU/mg BSAeq
same,change of the specific activity by addition of the inductor,[1]; compared with medium without additive,doubled to tripled
same,"Relative conversion (conversion of N-acetyl amino acid amides, Table 4b)",[2],102%
same,"Relative conversion (influence of protective group and adjacent amino acid, Table 4c)",[2],102%
"O[C@H](CS)[C@H](O)CS (relative stereo) [1,4-dithio-D,L-threitol]",remaining activity at 10000 µM,[3]; [9],96%
"c1cnc2c(c1)ccc1cccnc12 [1,10-phenanthroline]",remaining activity at 10000 µM,[3]; [9],92%
"c1ccc(-c2ccccn2)nc1 [2,2'-dipyridyl]",remaining activity at 10000 µM,[3]; [9],97%
CSCC[C@@H](NC(C)=O)C(=O)O [Ac-D-Met-OH],enantiomeric purity examined with HPLC (share of the enantiomer in the acid product),[4],0.2-0.3%
CC(=O)N[C@H](CC(C)(C)C)C(=O)O [Ac-D-Npg-OH],enantiomeric purity examined with HPLC (share of the enantiomer in the acid product),[4],0.2%
CSCC[C@H](NC(C)=O)C(=O)O [Ac-L-Met-OH],enantiomeric purity examined with HPLC (share of the enantiomer in the acid product),[4],99.7-99.8%
"CC(=O)N[C@@H](CC(C)(C)C)C(=O)O [Ac-L-Npg-OH, N-acetyl-L-neopentylglycine]",enantiomeric purity examined with HPLC (share of the enantiomer in the acid product),[4],99.8%
CCCCC[C@H](CC(=O)NO)C(=O)N[C@H](C(=O)N1CCC[C@H]1CO)C(C)C [Actinonine],remaining activity at 10000 µM,[3]; [9],106%
"C[N+](C)(C)CC(O)CC(N)=O (centres unmarked) [Carnitine amide, carnitine amide]",Activity (peptide amidase in raw extract),[1],30 mU/ml
same,Spec. activity (peptide amidase in raw extract),[1],7 mU/mg BSAeq
O.O.O.O.O.O.[Cl-].[Cl-].[Co+2] [CoCl2 *6 H2 O],residual activity,[3]; [9],80%
O.O.O.O.O.O=S(=O)([O-])[O-].[Cu+2] [CuSO4 *5 H2 O],residual activity,[3]; [9],103%
N[C@@H]1CONC1=O [D-cycloserine],remaining activity at 10000 µM,[3]; [9],100%
"CN(C)C=O [DMF, Dimethylformamide]",residual activity of peptidase amidase in presence of solvent,[5]; 20% solvent,94%
same,residual activity of peptidase amidase in presence of solvent,[5]; 30% solvent,59%
O=C(O)CN(CCN(CC(=O)O)CC(=O)O)CC(=O)O [EDTA],remaining activity at 10000 µM,[3],96%
O.O.O.O.O.O.[Cl][Hg][Cl] [HgCl2 *6 H2 O],residual activity,[3]; [9],67%
"CC(C)C[C@H](N)C(N)=O [Leu-NH2, leucine amide]",Activity (peptide amidase in raw extract),[1],15 mU/ml
same,Spec. activity (peptide amidase in raw extract),[1],3 mU/mg BSAeq
O.O.O.O.O.O.[Cl][Ni][Cl] [NiCl2 *6 H2 O],residual activity,[3]; [9],93%
NCCc1ccc(S(=O)(=O)F)cc1 [Pefabloc],inhibition of the microbial peptide amidase (serine groups),[3],Inhibition
same,residual activity,"[3]; inhibitor 0.3 mM, preincubation 1 h 30° C., Z-Gly-Tyr-NH2 10 mM",62%
same,residual activity,"[3]; inhibitor 0.1 Mm, preincubation 1 h 30° C., Z-Gly-Tyr-NH2 10 mM",82%
same,residual activity,[3]; [9],0%
O=S(=O)(F)Cc1ccccc1 [Phenylmethane sulfonyl fluoride],inhibition of the microbial peptide amidase (serine groups),[3],Inhibition
same,residual activity,[3]; [9],58%
same,inhibition by inhibitors from serine proteases,[6],Slight inhibition
NNC(N)=O [Semicarbazide],remaining activity at 10000 µM,[3]; [9],99%
C[C@@H](NC(=O)OCc1ccccc1)C(=O)O [Z-D-Ala-OH],enantiomeric purity examined with HPLC (share of the enantiomer in the acid product),[4],0.4%
NC(=O)[C@H](Cc1ccc(O)cc1)NC(=O)CNC(=O)OCc1ccccc1 [Z-Gly-Tyr-NH2] (Cbz-Gly-Tyr-NH2),vmax,[7],0.53 U/mg BSAeq
C[C@H](NC(=O)OCc1ccccc1)C(=O)O [Z-L-Ala-OH],enantiomeric purity examined with HPLC (share of the enantiomer in the acid product),[4],99.6%
CC(C)O [propan-2-ol],residual activity of peptidase amidase in presence of solvent,[5]; 10% solvent,30%
"peptide amidase from Xanthomonas maltophilia (Stenotrophomonas maltophilia) (protein, wild type, not recombinant) AEPASRNVPFPYAETDVADLQARMTAGELDSTTLTQAYLQRIAALDRTGPRLRAVIELNPDALKEAAERDRERRDGRLRGPLHGIPLLLKDNINAAPMATSAGSLALQGFRPDDAYLVRRLRDAGAVVLGKTNLSEWANFRGNDSISGWSARGGQTRNPYRISHSPCGSSSGSAVAVAANLASVAIGTETDGSIVCPAAINGVVGLKPTVGLVSRDGIIPISFSQDTAGPMARSVADAAAVLTAIAGRDDADPATATMPGRAVYDYTARLDPQGLRGKRIGLLQTPLLKYRGMPPLIEQAATELRRAGAVVVPVELPNQGAWAEAERTLLLYEFKAGLERYFNTHRAPLRSLADLIAFNQAHSKQELGLFGQELLVEADATAGLADPAYIRARSDARRLAGPEGIDAALAAHQLDALVAPTTGVAWPIRSEGDDFPGESYSAAAVAGYPSLTVPMGQIDGLPVGLLFMGTAWSEPKLIEMAYAYEQRTRARRPPHFDTDALIDAGEP",Km,[8],820 µM
